Ends that are not written are not given here.
Assays:
[1] = molecular target: T1, GSK3β (Mus musculus, UniProt Q9WV60); assay: Far western binding of GSK3β to GST-fused LRP6 fragments; conditions: for Binding of GSK3β: GST-fusion treated with GSK3β and CK1, GSK3β 1 µg/ml, three independent experiments
T1 construct: The catalytic domains of mouse GSK3β (residues 27–393) and CK1ε (residues 1–319) were expressed and purified; made in house
Excerpt: We first investigated whether the intracellular region of LRP6 binds to GSK3β in a phosphorylation-dependent manner. To detect binding, we used recombinant GST-fused LRP6 fragments (miniCL, miniCLMT, PPPSPxS, PPPAPxS; Fig. 1A) and GSK3β proteins in a far western binding assay. This assay is appropriate as the LRP6 cytoplasmic region is expected to be natively unstructured and therefore should not suffer from denaturation artifacts. Prior to the binding reaction, the GST-fused LRP6 fragments were phosphorylated by GSK3β and CK1 and transferred to a PVDF membrane. The membrane was incubated with GSK3β, and bound GSK3β was detected with an anti-GSK3β antibody. GSK3β bound to GST-miniCL and GST-miniCLMT, but not GST-PPPSPxS or GST-PPPAPxS (Fig. 4). […] Also, given the measured Ki value of the single PPPSPxS motif, it was expected that the single PPPSPxS motif might exert a limited role in recruiting the GSK3β.
Figure 4 Phosphorylation-dependent binding of the LRP6 intracellular region to GSK3β in the absence and presence of Axin. (A) GST (Lane 1), GST-fused miniCL (Lane 3; GST-miniCL), GST-fused miniCLMT (Lane 5; GST-miniCLMT), and their phosphorylated forms (Lanes 2, 4, 6; indicated by “phos”) were loaded onto an SDS-polyacrylamide gel, and then transferred to PVDF membrane (Left top). […] The phosphorylated protein bands show an upshifted mobility on the gel. The PVDF membrane was incubated with 1 µg/ml of GSK3β to allow GSK3β to bind to the proteins in the membrane. The bound GSK3β was visualized on the transferred proteins by western blotting using an anti-GSK3β antibody (Left bottom), and the GSK3β protein used to obtain the phosphorylated forms of each protein is indicated by GSK3β*. The band intensities of bound GSK3β were measured from the three independent experiments (Right). […] The phosphorylated GST-fused miniCL was transferred to PVDF membrane, and the membrane was incubated with GSK3β (0.1 µg/ml) and GST-fused Axin GBD domain protein (0, 10 µM). Error bars indicate the standard deviation from three independent experiments. […]

[2] = system: GSK3β and CK1; assay: Phosphorylation of GST-fusion proteins by GSK3β and CK1; type: biochemical; conditions: data not shown
[3] = system: Xenopus embryos; assay: Microinjection into Xenopus embryos, second body axis formation; type: in vivo, Xenopus laevis; conditions: peptide 1 ng co-injected with XWnt8 0.5 pg
Excerpt: It is well established that Wnt signaling reduces GSK3β activity during development of the Xenopus embryo [24], and that the suppressed activity of GSK3β induces a second body axis in the Xenopus embryo in the response to Wnt. To examine the in vivo effect of the PPPSPxS motif on Wnt/β-catenin signaling, we injected the synthetic peptides into Xenopus embryos, along with a small amount of Xenopus Wnt8 that is insufficient to induce second body axis formation on its own. […] It is likely that a slight reduction in the GSK3β activity due to the activity of the exogenous Wnt on the endogenous LRP6/5 is required for the peptide to cause a sufficient inhibition of GSK3β to trigger Wnt/β-catenin signaling. Moreover, even if the amount of peptide injected is well above physiological concentrations, the effect is specific to the phosphorylated peptide.
Figure 3 The effect of the injected PPPSPxS peptides to the Xenopus embryos. Xenopus Wnt8 protein (XWnt8; 0.5 pg) was co-microinjected with each peptide (1 ng) into the ventrovegetal region of Xenopus embryos. […]
Xenopus laevis was purchased from Xenopus I and Nasco. […] In vitro fertilization was performed as described previously, and the developmental stages of the embryos were determined according to Nieuwkoop and Faber. […]

[4] = molecular target: T1, GSK3β; assay: In vitro GSK3β activity assay with synthetic peptides (phosphorylation of primed β-catenin N-terminal fragment); type: biochemical; conditions: primed β-catenin N-terminal fragment 7 µM, 1 mM ATP, pH 8.0, 30 min at 37°C, 4–7 independent experiments
Excerpt: We synthesized one dually-phosphorylated (NPPPpSPApTERSH, where pS or pT designates a phosphorylated Ser or Thr residue), two singly-phosphorylated (NPPPSPApTERSH and NPPPp[…]) and one non-phosphorylated ([…]) peptides derived from the first PPPSPxS motif of LRP6 (Fig. 1A). To measure the GSK3β activity toward β-catenin in vitro, we utilized a β-catenin N-terminal fragment (residues 1–133), whose Ser45 was prephosphorylated by CK1, as a substrate (Ha et al., 2004). Each synthetic peptide was added to a reaction mixture containing the purified GSK3β enzyme and the substrate β-catenin N-terminal fragment. The GSK3β activity was determined through measurement of the intensity of the supershifted (retarded) β-catenin bands (Fig. S3), which represent the phosphorylated product species (Fig. S4), on an SDS-polyacrylamide gel (Figs. S3, S4, S5, S6, S7). […] This corresponds well with the results of Zeng et al., who reported that the first Ser residue in the PPPSPxS motif has a more important role in Wnt/β-catenin signaling than the second Ser residue.
The catalytic domains of mouse GSK3β (residues 27–393) and CK1ε (residues 1–319) were expressed and purified as previously described. The N-terminal region (residues 1–133) of β-catenin was expressed in Escherichia coli as a GST-fusion protein with a TEV protease cleavage site and then purified using Glutathione-agarose. Subsequently, the GST tag was cleaved using recombinant TEV protease and was removed by repeated HiTrapQ anion-exchange chromatography. The N-terminal region of β-catenin was then phosphorylated by incubation with the catalytic domain of CK1ε (0.28 mg/ml) at 37°C for 20 min in 50 mM Tris buffer (pH 8.0) containing 10 mM MgCl2, 10 mM 2-mercaptoethanol, and 2 mM phenylmethylsulfonylfluoride. The phosphorylated β-catenin fragment was then further purified using HiTrapQ anion-exchange chromatography to remove the CK1ε enzyme. […]

T1 sequence (Q9WV60 27-393): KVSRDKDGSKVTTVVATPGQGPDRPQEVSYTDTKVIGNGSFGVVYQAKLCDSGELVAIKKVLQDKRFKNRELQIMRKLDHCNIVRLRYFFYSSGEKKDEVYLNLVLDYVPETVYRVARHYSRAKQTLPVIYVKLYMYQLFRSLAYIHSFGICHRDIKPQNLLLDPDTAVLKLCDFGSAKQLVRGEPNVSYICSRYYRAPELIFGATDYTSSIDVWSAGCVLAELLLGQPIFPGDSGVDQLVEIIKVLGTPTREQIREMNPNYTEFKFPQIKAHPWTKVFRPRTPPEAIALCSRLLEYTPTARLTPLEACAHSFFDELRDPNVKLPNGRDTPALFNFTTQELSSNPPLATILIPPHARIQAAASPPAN

Substance | Binding of GSK3β [1] | Phosphorylation by GSK3β and CK1 [2] | Induction of second body axis [3] | also measured
GST-miniCL: GST-fused human LRP6 miniCL, residues 1470–1510 (SSSSSSTKGTYFPAILNPPPSPATERSHYTMEFGYSSNSPS; also: GST fusion (GST left off)) | bound |  |  | 
GST-PPPAPxS: GST-fused LRP6 PPPAPxS, residues 1485–1497 with the substitution at Ser1490 (LNPPPAPATERSH; also: GST-fused, end not given here) |  | not phosphorylated |  | 
GST-miniCLMT: GST-fused miniCLMT, residues 1470–1510 with substitution at Ser1490 with Ala (SSSSSSTKGTYFPAILNPPPAPATERSHYTMEFGYSSNSPS; also: GST fusion (GST left off)) | bound |  |  | Effect of S1490A mutation on GSK3β binding [1]: does not affect binding
NPPPpSPATERSH [PPP(p)SPxS, singly-phosphorylated peptide (first Ser/Thr) derived from the first PPPSPxS motif of LRP6] |  |  | induced the second body axis with an efficiency comparable to that of the dually-phosphorylated peptide | Inhibitory effect on GSK3β activity toward β-catenin ([4]; at 100 µM): strong inhibitory effect close to that of the dually-phosphorylated peptide
NPPPSPATERSH [PPPSPxS, non-phosphorylated peptide derived from the first PPPSPxS motif of LRP6] |  |  | did not | Inhibitory effect on GSK3β activity toward β-catenin ([4]; at concentrations up to 100 µM): did not show any inhibitory effect on the GSK3β activity
GST-PPPSPxS: GST-fused LRP6 PPPSPxS, residues 1485–1497 (LNPPPSPATERSH; also: GST-fused, end not given here) |  | not phosphorylated |  | 
